For 16 molecules, IC50 results are on record in patent publication US8017612B2, “Piperazine compound and use thereof as a HCV polymerase inhibitor” (priority 2006, dated 2011).

The target in test [1] is T1, HCV polymerase (NS5B) type 1b (Hepatitis C virus genotype 1b, UniProt P26663).
T1 construct: a region encoding NS5B (J Virol 1991 March, 65(3), 1105-13, 544 amino acids after deletion of 47 amino acids on the C-terminal); 6xHis (C); made in house; host or cells: Escherichia coli
Description: Assay of enzyme (HCV polymerase) inhibitory activity, type 1b enzyme. The test is classed as biochemical, HCV BK strain (type 1b). As to conditions: HCV polymerase inhibitory activity IC50, 1b, type 1b enzyme. The gist of the method: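 Polymerase activity was followed as radiolabelled UTP incorporation by E. coli-expressed, His-tagged NS5B of HCV type 1b lacking its last 47 residues. Conditions: 2 μM UTP, 50 μM other NTPs, Mg2+ buffer at pH 7.5, 25 °C for 60 min. Inhibition relative to compound-free reactions gave IC50.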

The target in test [2] is T2, HCV polymerase (NS5B) type 1a (Hepatitis C virus genotype 1a, UniProt P26664).
T2 construct: made in house; host or cells: Escherichia coli (by the 'similar method' of the 1b enzyme)
In words: Assay of enzyme (HCV polymerase) inhibitory activity, type 1a enzyme. The format is biochemical, HCV type 1a (cloned from the blood of patients). As to conditions: HCV polymerase inhibitory activity IC50, 1a, type 1a enzyme. The gist of the method:
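IC50 values derive from radioactivity of newly synthesized RNA with versus without test compound. The enzyme was C-terminally truncated type 1a NS5B, 1.5 μg/ml, run 60 min at 25° C with 3H-UTP-labelled nucleotides.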

What is called IC50 is the point on the concentration scale where inhibition reaches its midpoint. Higher therefore signals weaker potency in that assay. As for `NC(=O)c1n[nH]c(=O)c2sc(N3CCN(S(=O)(=O)c4ccc(OC(F)(F)F)cc4)[C@@H](C(=O)NCc4ccc(OC(F)(F)F)cc4)C3)nc12` [Example 876, 7-oxo-2-[(R)-4-(4-trifluoromethoxy-benzenesulfonyl)-3-(4-trifluoromethoxy-benzylcarbamoyl)-piperazin-1-yl]-6,7-dihydro-thiazolo[4,5-d]pyridazine-4-carboxylic acid amide], the IC50 in test [1] and in test [2] was below 100 nM throughout.

For the molecule `O=C(NCc1ccc(OC(F)(F)F)cc1)[C@H]1CN(c2nc3cn[nH]c(=O)c3s2)CCN1S(=O)(=O)c1ccc(C(F)(F)F)cc1` [Example 877, (R)-4-(7-oxo-6,7-dihydro-thiazolo[4,5-d]pyridazin-2-yl)-1-(4-trifluoromethyl-benzenesulfonyl)-piperazine-2-carboxylic acid 4-trifluoromethoxy-benzylamide], the half-inhibitory concentration (IC50) in test [1] and in test [2] was below 100 nM throughout.

As for `O=C(NCc1ccc(OC(F)(F)F)cc1)[C@H]1CN(c2nc3nc(O)ncc3s2)CCN1S(=O)(=O)c1ccc(OC(F)(F)F)cc1` [Example 878, (R)-4-(5-hydroxy-thiazolo[4,5-d]pyrimidin-2-yl)-1-(4-trifluoromethoxy-benzenesulfonyl)-piperazine-2-carboxylic acid 4-trifluoromethoxy-benzylamide], the IC50 in test [1] and in test [2] was below 100 nM throughout.

As to `O=C(NCc1ccc(OC(F)(F)F)cc1)[C@H]1CN(c2nc3cnncc3s2)CCN1S(=O)(=O)c1ccc(OC(F)(F)F)cc1` [Example 879, (R)-4-thiazolo[4,5-d]pyridazin-2-yl-1-(4-trifluoromethoxy-benzenesulfonyl)-piperazine-2-carboxylic acid 4-trifluoromethoxy-benzylamide], the IC50 in test [1] and in test [2] was below 100 nM throughout.

On to `CCCc1ccc(CNC(=O)[C@H]2CN(c3nc4c(C(=O)OCC)nnc(Cl)c4s3)CCN2S(=O)(=O)c2ccc(CC)cc2)cc1` [Example 880, 7-chloro-2-[(R)-4-(4-ethyl-benzenesulfonyl)-3-(4-propyl-benzylcarbamoyl)-piperazin-1-yl]-thiazolo[4,5-d]pyridazine-4-carboxylic acid ethyl ester], for which the IC50 in test [1] and in test [2] was below 100 nM in each case.

As for `O=C(NCc1ccc(OC(F)(F)F)cc1)[C@H]1CN(c2nc3cn[nH]c(=O)c3s2)CCN1S(=O)(=O)c1ccc(Br)cc1` [Example 881, (R)-1-(4-bromo-benzenesulfonyl)-4-(7-oxo-6,7-dihydro-thiazolo[4,5-d]pyridazin-2-yl)-piperazine-2-carboxylic acid 4-trifluoromethoxy-benzylamide], the IC50 in test [1] and in test [2] was below 100 nM throughout.

With `COCC1(c2ccc(CNC(=O)[C@H]3CN(c4nc5cn[nH]c(=O)c5s4)CCN3S(=O)(=O)c3ccc(OC(F)(F)F)cc3)cc2)CC1` [Example 882, (R)-4-(7-oxo-6,7-dihydro-thiazolo[4,5-d]pyridazin-2-yl)-1-(4-trifluoromethoxy-benzenesulfonyl)-piperazine-2-carboxylic acid 4-(1-methoxymethyl-cyclopropyl)-benzylamide], the IC50 is below 100 nM in test [1] and 100 to 1000 nM in test [2].

Consider `CCN(C)c1ccc(CNC(=O)[C@H]2CN(c3nc4cn[nH]c(=O)c4s3)CCN2S(=O)(=O)c2ccc(OC(F)(F)F)cc2)cc1` [Example 883, (R)-4-(7-oxo-6,7-dihydro-thiazolo[4,5-d]pyridazin-2-yl)-1-(4-trifluoromethoxy-benzenesulfonyl)-piperazine-2-carboxylic acid 4-(ethyl-methyl-amino)-benzylamide], for which the IC50 in test [1] and in test [2] was below 100 nM throughout.

For the molecule `COc1ccc(S(=O)(=O)N2CCN(c3nc4cn[nH]c(=O)c4s3)C[C@@H]2C(=O)NCc2ccc(OC(F)(F)F)cc2)cc1` [Example 884, (R)-1-(4-methoxy-benzenesulfonyl)-4-(7-oxo-6,7-dihydro-thiazolo[4,5-d]pyridazin-2-yl)-piperazine-2-carboxylic acid 4-trifluoromethoxy-benzylamide], the half-maximal inhibitory concentration (IC50) in test [1] and in test [2] was below 100 nM in each case.

`O=C(NCc1ccc(OC(F)(F)F)cc1)[C@H]1CN(c2nc3cncnc3s2)CCN1S(=O)(=O)c1ccc(OC(F)(F)F)cc1` [Example 885, (R)-4-thiazolo[5,4-d]pyrimidin-2-yl-1-(4-trifluoromethoxy-benzenesulfonyl)-piperazine-2-carboxylic acid 4-trifluoromethoxy-benzylamide]: the IC50 in test [1] and in test [2] was below 100 nM each time.

As for `O=C(NCc1ccc(OC(F)(F)F)cc1)[C@H]1CN(c2nc3ncncc3s2)CCN1S(=O)(=O)c1ccc(C(F)(F)F)cc1` [Example 886, (R)-4-thiazolo[4,5-d]pyrimidin-2-yl-1-(4-trifluoromethyl-benzenesulfonyl)-piperazine-2-carboxylic acid 4-trifluoromethoxy-benzylamide], the IC50 in test [1] and in test [2] was below 100 nM each time.

With `O=C(NCc1ccc(OC(F)(F)F)cc1)[C@H]1CN(c2nc3nc(Cl)ncc3s2)CCN1S(=O)(=O)c1ccc(C(F)(F)F)cc1` [Example 887, (R)-4-(5-chloro-thiazolo[4,5-d]pyrimidin-2-yl)-1-(4-trifluoromethyl-benzenesulfonyl)-piperazine-2-carboxylic acid 4-trifluoromethoxy-benzylamide], the IC50 in test [1] and in test [2] was below 100 nM in each case.

Regarding `O=C(NCc1ccc(OC(F)(F)F)cc1)[C@H]1CN(c2nc3nc(O)nc(O)c3s2)CCN1S(=O)(=O)c1ccc(OC(F)(F)F)cc1` [Example 888, (R)-4-(5,7-dihydroxy-thiazolo[4,5-d]pyrimidin-2-yl)-1-(4-trifluoromethoxy-benzenesulfonyl)-piperazine-2-carboxylic acid 4-trifluoromethoxy-benzylamide], the IC50 in test [1] and in test [2] was below 100 nM each time.

In the case of `CCCc1ccc(CNC(=O)[C@H]2CN(c3ccc(C(=O)O)c(F)c3)CCN2S(=O)(=O)c2ccc(CC)cc2)cc1` [Example 889, 4-[(R)-4-(4-ethyl-benzenesulfonyl)-3-(4-propyl-benzylcarbamoyl)-piperazin-1-yl]-2-fluoro-benzoic acid], the IC50 in test [1] and in test [2] was above 1000 nM in each case.

With `CCC(C)(C)c1ccc(CNC(=O)[C@H]2CN(c3nc(Cl)c(C(=O)O)s3)CCN2S(=O)(=O)c2ccc(OC(F)(F)F)cc2)cc1` [Example 890, 4-chloro-2-[(R)-3-[4-(1,1-dimethyl-propyl)-benzylcarbamoyl]-4-(4-trifluoromethoxy-benzenesulfonyl)-piperazin-1-yl]-thiazole-5-carboxylic acid], the IC50 in test [1] and in test [2] was below 100 nM in each case.

In the case of `CCCc1ccc(CNC(=O)[C@H]2CN(c3nc4c(C(=O)OCC)nncc4s3)CCN2S(=O)(=O)c2ccc(CC)cc2)cc1` [Example 891, 2-[(R)-4-(4-ethyl-benzenesulfonyl)-3-(4-propyl-benzylcarbamoyl)-piperazin-1-yl]-thiazolo[4,5-d]pyridazine-4-carboxylic acid ethyl ester], the IC50 in test [1] and in test [2] was below 100 nM throughout.
